Laboratory results taken from patent publication US20220281848A1, “PYRAZOLE-SUBSTITUTED PYRROLIDINONES AS HERBICIDES” (FMC Corporation, priority 2019, published 2022).

Tested on: plants
Assay: Test D pre-emergence, other plants of Tables D1 and D3
Type: in vivo
Conditions: pre-emergence, 100=total damage, 0=no damage
In short: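 Damage was rated visually from 0 (none) to 100 (total), at 20 DAA for pre-emergence and 15 d for post-emergence. Plants grew from safener-treated seed in a glasshouse at 24/18° C. or 20/16° C. day/night, 65% humidity, watered twice daily.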

SMILES: CCn1nc([C@H]2CN(C)C(=O)[C@@H]2C(=O)Nc2cccc(F)c2F)c2ccc(F)cc21 [Compound 4]
- damage to plant, BEAVA (rate 15, 20 DAA): 0
- damage to plant, BROTE (rate 15, 20 DAA): 0
- damage to plant, BRSNN (rate 15, 20 DAA): 0
- damage to plant, CHEAL (rate 15, 20 DAA): 0
- damage to plant, GALAP (rate 15, 20 DAA): 0
- damage to plant, HORVW (rate 15, 20 DAA): 0
- damage to plant, KCHSC (rate 15, 20 DAA): 0
- damage to plant, LOLPE (rate 15, 20 DAA): 0
- damage to plant, POAAN (rate 15, 20 DAA): 0
- damage to plant, POLCO (rate 15, 20 DAA): 0
- damage to plant, SINAR (rate 15, 20 DAA): 0
- damage to plant, STEME (rate 15, 20 DAA): 0
- damage to plant, VERPE (rate 15, 20 DAA): 0
- damage to plant, ALOMY (rate 30, 20 DAA): 0
- damage to plant, AVEFA (rate 30, 20 DAA): 0
- damage to plant, BEAVA (rate 30, 20 DAA): 0
- damage to plant, BROTE (rate 30, 20 DAA): 0
- damage to plant, BRSNN (rate 30, 20 DAA): 0
- damage to plant, CHEAL (rate 30, 20 DAA): 0
- damage to plant, GALAP (rate 30, 20 DAA): 0
- damage to plant, HORVW (rate 30, 20 DAA): 0
- damage to plant, KCHSC (rate 30, 20 DAA): 0
- damage to plant, LOLPE (rate 30, 20 DAA): 0
- damage to plant, POAAN (rate 30, 20 DAA): 0
- damage to plant, POLCO (rate 30, 20 DAA): 0
- damage to plant, SINAR (rate 30, 20 DAA): 0
- damage to plant, STEME (rate 30, 20 DAA): 0
- damage to plant, VERPE (rate 30, 20 DAA): 0
- damage to plant, ALOMY (rate 60, 20 DAA): 0
- damage to plant, AVEFA (rate 60, 20 DAA): 0
- damage to plant, BEAVA (rate 60, 20 DAA): 0
- damage to plant, BROTE (rate 60, 20 DAA): 0
- damage to plant, BRSNN (rate 60, 20 DAA): 0
- damage to plant, CHEAL (rate 60, 20 DAA): 0
- damage to plant, GALAP (rate 60, 20 DAA): 0
- damage to plant, HORVW (rate 60, 20 DAA): 0
- damage to plant, KCHSC (rate 60, 20 DAA): 0
- damage to plant, LOLPE (rate 60, 20 DAA): 0
- damage to plant, POAAN (rate 60, 20 DAA): 40
- damage to plant, POLCO (rate 60, 20 DAA): 0
- damage to plant, SINAR (rate 60, 20 DAA): 0
- damage to plant, STEME (rate 60, 20 DAA): 0
- damage to plant, VERPE (rate 60, 20 DAA): 0
- damage to plant, ALOMY (rate 130, 20 DAA): 0
- damage to plant, AVEFA (rate 130, 20 DAA): 0
- damage to plant, BEAVA (rate 130, 20 DAA): 0
- damage to plant, BROTE (rate 130, 20 DAA): 0
- damage to plant, BRSNN (rate 130, 20 DAA): 0
- damage to plant, CHEAL (rate 130, 20 DAA): 0
- damage to plant, GALAP (rate 130, 20 DAA): 0
- damage to plant, HORVW (rate 130, 20 DAA): 0
- damage to plant, KCHSC (rate 130, 20 DAA): 0
- damage to plant, LOLPE (rate 130, 20 DAA): 0
- damage to plant, POAAN (rate 130, 20 DAA): 50
- damage to plant, POLCO (rate 130, 20 DAA): 0
- damage to plant, SINAR (rate 130, 20 DAA): 0
- damage to plant, STEME (rate 130, 20 DAA): 0
- damage to plant, VERPE (rate 130, 20 DAA): 0
- damage to plant, ALOMY (rate 250, 20 DAA): 0
- damage to plant, AVEFA (rate 250, 20 DAA): 0
- damage to plant, BEAVA (rate 250, 20 DAA): 0
- damage to plant, BROTE (rate 250, 20 DAA): 0
- damage to plant, BRSNN (rate 250, 20 DAA): 0
- damage to plant, CHEAL (rate 250, 20 DAA): 0
- damage to plant, GALAP (rate 250, 20 DAA): 0
- damage to plant, HORVW (rate 250, 20 DAA): 0
- damage to plant, KCHSC (rate 250, 20 DAA): 0
- damage to plant, LOLPE (rate 250, 20 DAA): 0
- damage to plant, POAAN (rate 250, 20 DAA): 80
- damage to plant, POLCO (rate 250, 20 DAA): 0
- damage to plant, SINAR (rate 250, 20 DAA): 0
- damage to plant, STEME (rate 250, 20 DAA): 0
- damage to plant, VERPE (rate 250, 20 DAA): 0
- damage to plant, ALOMY (rate 500, 20 DAA): 40
- damage to plant, AVEFA (rate 500, 20 DAA): 10
- damage to plant, BEAVA (rate 500, 20 DAA): 0
- damage to plant, BROTE (rate 500, 20 DAA): 10
- damage to plant, BRSNN (rate 500, 20 DAA): 10
- damage to plant, CHEAL (rate 500, 20 DAA): 0
- damage to plant, GALAP (rate 500, 20 DAA): 0
- damage to plant, HORVW (rate 500, 20 DAA): 20
- damage to plant, KCHSC (rate 500, 20 DAA): 0
- damage to plant, LOLPE (rate 500, 20 DAA): 0
- damage to plant, POAAN (rate 500, 20 DAA): 90
- damage to plant, POLCO (rate 500, 20 DAA): 20
- damage to plant, SINAR (rate 500, 20 DAA): 30
- damage to plant, STEME (rate 500, 20 DAA): 0
- damage to plant, VERPE (rate 500, 20 DAA): 0
